Target: T1, human α1G T-type channels (Homo sapiens, UniProt O43497)
T1 construct: expressed in transfected cells; host or cells: HEK 293
Assay: T-type calcium channel block, whole cell patch clamp in HEK cells (α1G)
Assay type: cell-based
Conditions: HEK cells, patch clamp, mainly non-inactivated protocol; values above 10 μM shown as 10 μM, below 0.30 μM shown as 0.30 μM; read-out: T-type Calcium Channel Block α1G IC50
Description: T-type calcium channel blocking activity was assayed in human embryonic kidney cells, HEK 293, stably transfected with the T-type calcium channel subunits. Briefly, cells were cultured in Dulbecco's modified eagle medium (DMEM) supplemented with 10% fetal bovine serum, 200 U/ml penicillin and 0.2 mg/ml streptomycin at 37° C. with 5% CO2. At 85% confluency cells were split with 0.25% trypsin/1 mM EDTA and plated at 10% confluency on glass coverslips. […] Fresh DMEM was supplied and the cells transferred to 28° C./5% CO2. Cells were incubated for 1 to 2 days prior to whole cell recording.
Standard patch-clamp techniques were employed to identify blockers of T-type currents. Briefly, previously described HEK cell lines stably expressing human α1G, α1H and α1I T-type channels were used for all the recordings (passage #: 4-20, 37° C., 5% CO2). Whole cell patch clamp experiments were performed using an Axopatch 200B amplifier (Axon Instruments, Burlingame, Calif.) linked to a personal computer equipped with pCLAMP software. Data were analyzed using Clampfit (Axon Instruments) and SigmaPlot 4.0 (Jandel Scientific). To obtain T-type currents, plastic dishes containing semi-confluent cells were positioned on the stage of a ZEISS AXIOVERT S100 microscope after replacing the culture medium with external solution (see below). Whole-cell patches were obtained using pipettes (borosilicate glass with filament, O.D.: 1.5 mm, I.D.: 0.86 mm, 10 cm length), fabricated on a SUTTER P-97 puller with resistance values of ˜5 MΩ (see below for internal solution).
In the non-inactivating protocol, the holding potential is set at −110 mV and with a pre-pulse at −100 mV for 1 second prior to the test pulse at −40 mV for 50 ms.
Test compounds were dissolved in external solution, 0.1-0.01% DMSO. After ˜10 min rest, they were applied by gravity close to the cell using a WPI microfil tubing. The “non-inactivated” pre-pulse was used to examine the resting block of a compound. The “inactivated” protocol was employed to study voltage-dependent block. […] Values are shown in μM and values above 10 μM are simply represented as 10 μM.

T1 sequence (O43497 whole entry): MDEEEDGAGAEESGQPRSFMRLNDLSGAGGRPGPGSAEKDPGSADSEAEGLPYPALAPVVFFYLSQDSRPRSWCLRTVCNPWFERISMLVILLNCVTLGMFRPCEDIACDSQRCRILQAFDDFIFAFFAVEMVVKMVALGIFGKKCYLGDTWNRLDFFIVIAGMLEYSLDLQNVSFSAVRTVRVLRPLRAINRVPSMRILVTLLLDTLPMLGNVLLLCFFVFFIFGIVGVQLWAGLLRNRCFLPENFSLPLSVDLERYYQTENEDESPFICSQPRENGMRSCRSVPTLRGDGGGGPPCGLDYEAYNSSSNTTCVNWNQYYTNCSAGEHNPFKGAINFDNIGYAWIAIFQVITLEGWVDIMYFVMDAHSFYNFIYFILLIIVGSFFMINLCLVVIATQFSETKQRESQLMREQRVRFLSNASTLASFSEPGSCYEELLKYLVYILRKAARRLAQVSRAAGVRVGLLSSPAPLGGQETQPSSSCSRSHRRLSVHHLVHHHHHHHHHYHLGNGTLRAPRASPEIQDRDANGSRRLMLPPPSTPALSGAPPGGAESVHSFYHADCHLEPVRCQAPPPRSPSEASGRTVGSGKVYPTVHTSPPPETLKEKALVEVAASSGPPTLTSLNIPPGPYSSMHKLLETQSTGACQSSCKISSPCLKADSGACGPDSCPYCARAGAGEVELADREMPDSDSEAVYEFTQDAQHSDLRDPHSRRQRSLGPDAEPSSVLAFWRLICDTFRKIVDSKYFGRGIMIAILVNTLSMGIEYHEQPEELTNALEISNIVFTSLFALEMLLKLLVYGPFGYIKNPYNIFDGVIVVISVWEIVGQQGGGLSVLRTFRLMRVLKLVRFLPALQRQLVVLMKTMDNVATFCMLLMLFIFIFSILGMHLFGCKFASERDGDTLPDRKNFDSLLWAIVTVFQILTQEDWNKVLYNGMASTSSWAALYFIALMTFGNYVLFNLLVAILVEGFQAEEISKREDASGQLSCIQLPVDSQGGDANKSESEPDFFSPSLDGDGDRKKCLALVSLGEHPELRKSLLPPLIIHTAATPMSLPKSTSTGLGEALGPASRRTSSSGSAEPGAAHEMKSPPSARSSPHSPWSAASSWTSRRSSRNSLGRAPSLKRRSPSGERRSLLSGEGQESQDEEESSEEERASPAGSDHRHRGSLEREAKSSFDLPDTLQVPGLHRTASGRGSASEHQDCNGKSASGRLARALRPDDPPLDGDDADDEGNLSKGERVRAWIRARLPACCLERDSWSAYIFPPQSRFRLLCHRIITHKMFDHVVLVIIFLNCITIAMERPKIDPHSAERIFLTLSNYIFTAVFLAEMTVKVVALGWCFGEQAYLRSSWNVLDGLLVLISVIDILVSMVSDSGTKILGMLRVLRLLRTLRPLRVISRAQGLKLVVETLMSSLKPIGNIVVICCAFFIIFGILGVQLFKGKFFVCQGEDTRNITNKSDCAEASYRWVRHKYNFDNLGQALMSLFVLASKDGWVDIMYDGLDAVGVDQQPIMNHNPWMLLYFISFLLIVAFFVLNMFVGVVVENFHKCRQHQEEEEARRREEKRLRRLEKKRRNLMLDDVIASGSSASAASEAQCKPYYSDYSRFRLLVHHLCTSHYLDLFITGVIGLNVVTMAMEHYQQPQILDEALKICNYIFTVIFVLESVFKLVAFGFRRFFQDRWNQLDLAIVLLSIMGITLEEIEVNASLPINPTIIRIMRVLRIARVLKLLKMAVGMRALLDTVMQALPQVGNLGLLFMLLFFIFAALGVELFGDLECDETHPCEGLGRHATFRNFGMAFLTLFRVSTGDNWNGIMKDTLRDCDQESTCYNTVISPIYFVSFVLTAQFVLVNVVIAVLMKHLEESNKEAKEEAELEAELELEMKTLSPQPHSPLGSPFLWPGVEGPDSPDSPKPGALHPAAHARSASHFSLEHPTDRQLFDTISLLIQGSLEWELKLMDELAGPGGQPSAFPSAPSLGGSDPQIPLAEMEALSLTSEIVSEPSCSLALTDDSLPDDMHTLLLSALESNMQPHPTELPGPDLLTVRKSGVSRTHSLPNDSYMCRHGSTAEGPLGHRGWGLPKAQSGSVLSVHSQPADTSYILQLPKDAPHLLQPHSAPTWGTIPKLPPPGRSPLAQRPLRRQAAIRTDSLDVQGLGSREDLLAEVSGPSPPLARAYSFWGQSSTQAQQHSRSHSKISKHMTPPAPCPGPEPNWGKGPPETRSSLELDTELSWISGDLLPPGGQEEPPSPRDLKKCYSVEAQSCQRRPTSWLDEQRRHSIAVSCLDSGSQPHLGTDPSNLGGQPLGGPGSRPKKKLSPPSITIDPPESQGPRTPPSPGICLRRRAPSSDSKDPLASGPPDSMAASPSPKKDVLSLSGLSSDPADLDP

| SMILES | IC50 [µM] |
| --- | --- |
| CC(C)(C)OC(=O)NCCN1CCC(CNC(=O)c2cccc(S(C)(=O)=O)c2)CC1 [Compound 45, tert-butyl 2-(4-((3-(methylsulfonyl)benzamido)methyl)piperidin-1-yl)ethylcarbamate] | > 10 |
| CC(C)(C)OC(=O)NCCN1CCC(CNC(=O)c2cccc(OC(C)(C)C)c2)CC1 [Compound 50, tert-butyl 2-(4-((3-tert-butoxybenzamido)methyl)piperidin-1-yl)ethylcarbamate] | 8.97 |
| CC(C)(C)OC(=O)NCCN1CCC(CNC(=O)c2ccc(F)cc2F)CC1 [Compound 51, tert-butyl 2-(4-((2,4-difluorobenzamido)methyl)piperidin-1-yl)ethylcarbamate] | > 10 |
| CC(C)(C)OC(=O)NCCN1CCC(CNC(=O)c2ccccc2C(F)(F)F)CC1 [Compound 53, tert-butyl 2-(4-((2-(trifluoromethyl)benzamido)methyl)piperidin-1-yl)ethylcarbamate] | > 10 |
| CC(C)(C)OC(=O)NCCN1CCC(CNC(=O)c2ccccc2OC(F)(F)F)CC1 [Compound 55, tert-butyl 2-(4-((2-(trifluoromethoxy)benzamido)methyl)piperidin-1-yl)ethylcarbamate] | > 10 |
| CC(C)(C)[C@H](O)C(=O)N1CCC(CNC(=O)c2cc(C(F)(F)F)cc(C(F)(F)F)c2)CC1 [Compound 76, (S)-N-((1-(2-hydroxy-3,3-dimethylbutanoyl)piperidin-4-yl)methyl)-3,5-bis(trifluoromethyl) benzamide] | 7.62 |
| NC1(C(=O)N2CCC(CNC(=O)c3cc(C(F)(F)F)cc(C(F)(F)F)c3)CC2)CCCC1 [Compound 85, N-((1-(1-aminocyclopentanecarbonyl)piperidin-4-yl)methyl)-3,5-bis(trifluoromethyl) benzamide] | > 10 |
| NC1(C(=O)N2CCC(CNC(=O)c3cc(C(F)(F)F)cc(C(F)(F)F)c3)CC2)CCCCC1 [Compound 86, N-((1-(1-aminocyclohexanecarbonyl)piperidin-4-yl)methyl)-3,5-bis(trifluoromethyl) benzamide] | > 10 |
| CCC(O)(C(=O)N1CCC(CNC(=O)c2cc(C(F)(F)F)cc(C(F)(F)F)c2)CC1)C(C)(C)C (stereo not drawn) [Compound 90, N-((1-(2-ethyl-2-hydroxy-3,3-dimethylbutanoyl)piperidin-4-yl)methyl)-3,5-bis(trifluoromethyl)benzamide] | 4.27 |
| CC(C)(C)C(O)C(=O)N1CCC(CNC(=O)c2cc(C(F)(F)F)cc(C(F)(F)F)c2)CC1 (stereo not drawn) [Compound 91, N-((1-(2-hydroxy-3,3-dimethylbutanoyl)piperidin-4-yl)methyl)-3,5-bis(trifluoromethyl)benzamide] | > 10 |
| CC(C)(O)C(=O)N1CCC(CC(=O)Nc2cc(C(F)(F)F)cc(C(F)(F)F)c2)CC1 [Compound 154, N-(3,5-bis(trifluoromethyl)phenyl)-2-(1-(2-hydroxy-2-methylpropanoyl)piperidin-4-yl)acetamide] | 6.71 |
| CC(C)(C)C(O)CN1CCC(CC(=O)Nc2nc3ccccc3[nH]2)CC1 (stereo not drawn) [Compound 166, N-(1H-benzo[d]imidazol-2-yl)-2-(1-(2-hydroxy-3,3-dimethylbutyl)piperidin-4-yl)acetamide] | > 10 |
| CC(C)(C)C(O)CN1CCC(CC(=O)NCc2cccc(OC(F)F)c2)CC1 (stereo not drawn) [Compound 175, N-(3-(difluoromethoxy)benzyl)-2-(1-(2-hydroxy-3,3-dimethylbutyl)piperidin-4-yl)acetamide] | > 10 |
| CC(C)(C)C(O)CN1CCC(CC(=O)NCc2ccc3c(c2)CCO3)CC1 (stereo not drawn) [Compound 176, N-((2,3-dihydrobenzofuran-5-yl)methyl)-2-(1-(2-hydroxy-3,3-dimethylbutyl)piperidin-4-yl)acetamide] | > 10 |
| CC(C)(C)C(O)CN1CCC(CC(=O)NCCc2ccc(F)cc2)CC1 (stereo not drawn) [Compound 177, N-(4-fluorophenethyl)-2-(1-(2-hydroxy-3,3-dimethylbuyl)piperidin-4-yl)acetamide] | > 10 |
| NC1(C(=O)N2CCC(CC(=O)Nc3cc(C(F)(F)F)cc(C(F)(F)F)c3)CC2)CC1 [Compound 190, 2-(1-(1-aminocyclopropanecarbonyl)piperidin-4-yl)-N-(3,5-bis(trifluoromethyl)phenyl) acetamide] | > 10 |
| O=C(CC1CCN(C(=O)[C@H]2CCCN2)CC1)Nc1cc(C(F)(F)F)cc(C(F)(F)F)c1 [Compound 191, (R)-N-(3,5-bis(trifluoromethyl)phenyl)-2-(1-(pyrrolidine-2-carbonyl)piperidin-4-yl)acetamide] | > 10 |
| NC1(C(=O)N2CCC(CC(=O)Nc3cc(C(F)(F)F)cc(C(F)(F)F)c3)CC2)CCOCC1 [Compound 194, 2-(1-(4-aminotetrahydro-2H-pyran-4-carbonyl)piperidin-4-yl)-N-(3,5-bis(trifluoromethyl)phenyl)acetamide] | > 10 |
| CC(C)(C)OC(=O)NC(CN1CCC(CC(=O)NCCc2c[nH]c3ccccc23)CC1)C(C)(C)C (stereo not drawn) [Compound 197, tert-butyl 1-(4-(2-(2-(1H-indol-3-yl)ethylamino)-2-oxoethyl)piperidin-1-yl)-3,3-dimethylbutan-2-ylcarbamate] | > 10 |
| CC(C)(C)C(N)CN1CCC(CC(=O)NCc2cc(Cl)cc(Cl)c2)CC1 (stereo not drawn) [Compound 201, 2-(1-(2-amino-3,3-dimethylbutyl)piperidin-4-yl)-N-(3,5-dichlorobenzyl) acetamide] | > 10 |
| CC(C)S(=O)(=O)NC(CN1CCC(CC(=O)NCCc2c[nH]c3ccc(F)cc23)CC1)C(C)(C)C (stereo not drawn) [Compound 206, 2-(1-(3,3-dimethyl-2-(1-methylethylsulfonamido)butyl)piperidin-4-yl)-N-(2-(5-fluoro-1H-3-yl)ethyl)acetamide] | > 10 |
| CC(C)(C)C(CN1CCC(CC(=O)NCc2cc(Cl)cc(Cl)c2)CC1)NS(C)(=O)=O (stereo not drawn) [Compound 207, N-(3,5-dichhlorobenzyl)-2-(1-(3,3-dimethyl-2-(methylsulfonamido)butyl)piperidin-4-yl)acetamide] | > 10 |
| CCS(=O)(=O)NC(CN1CCC(CC(=O)NCc2cc(Cl)cc(Cl)c2)CC1)C(C)(C)C (stereo not drawn) [Compound 208, N-(3,5-dichlorobenzyl)-2-(1-(2-(ethylsulfonamido)-3,3-dimethylbutyl)piperidin-4-yl)acetamide] | > 10 |
| CC(C)(C)C(CN1CCC(CC(=O)NCc2cc(Cl)cc(Cl)c2)CC1)NS(=O)(=O)C1CC1 (stereo not drawn) [Compound 209, 2-(1-(2-(cyclopropanesulfonamido)-3,3-dimethylbutyl)piperidin-4-yl)-N-(3,5-dichlorobenzyl)acetamide] | 8.6 |
| CC(C)(C)C(N)CN1CCC(CC(=O)NC(c2cccc(F)c2)c2cccc(F)c2)CC1 (stereo not drawn) [Compound 217, 2-(1-(2-amino-3,3-dimethylbutyl)piperidin-4-yl)-N-(bis(3-fluorophenyl)methyl)acetamide] | 5.82 |
| CC(C)(C)C(CN1CCC(CC(=O)NC(c2cccc(F)c2)c2cccc(F)c2)CC1)NS(C)(=O)=O (stereo not drawn) [Compound 219, N-(bis(3-fluorophenyl)methyl)-2-(1-(3,3-dimethyl-2-(methylsulfonamido)butyl)piperidin-4-yl)acetamide] | > 10 |
| CCS(=O)(=O)NC(CN1CCC(CC(=O)NC(c2cccc(F)c2)c2cccc(F)c2)CC1)C(C)(C)C (stereo not drawn) [Compound 220, N-(bis(3-fluorophenyl)methyl)-2-(1-(2-(ethylsulfonamido)-3,3-dimethylbutyl)piperidin-4-yl)acetamide] | 6.91 |

— patent US8569344B2, “N-piperidinyl acetamide derivatives as calcium channel blockers” (Zalicus Pharmaceuticals Ltd., priority 2008, dated 2013)
